# Reference: US7311933B2, “Packaging material for inhibiting microbial growth” (Eastman Kodak Company, priority 2004, dated 2007)
# Format: physicochemical
# Description: Desferrioxamine B is a commercially available iron chelating drug, desferal®. […] (1980). […] 89, p.
compound,measurement,value
"O=C(NCCCCN(CCCNC(=O)c1cc(S(=O)(=O)O)cc(O)c1O)C(=O)c1cc(S(=O)(=O)O)cc(O)c1O)c1cc(S(=O)(=O)O)cc(O)c1O [3,4-LICAMS]",selectivity: difference between the log stability constants,26.8
"O=C(O)CN(CCN(CC(=O)O)CC(=O)O)CCN(CC(=O)O)CC(=O)O [DTPA, diethylenetriaminepentaacetic acid]",selectivity: difference between the log stability constants,17.2
